Results: patent publication US6344576B1, “Phospholipid-analogous compounds” (Max-Planck-Gesellschaft zur Förderung der Wissenschaften …, priority 1997, dated 2002)

Experiments:
[1] = Use as solubilizer for substances of low solubility in water
[2] = Behaviour in water (solubility, gel formation, suitability for intravenous administration); format: physicochemical

CCCCCCCC/C=C\CCCCCCCC(=O)OC[C@H](COP(=O)([O-])OCCC[N+](C)(C)C)OC(=O)CCCCCCC/C=C\CCCCCCCC [Example 85, 1,2-Dioleoyl-sn-glycero-3-phospho-N,N,N-trimethyl-propylammonium]
suitability as solubilizer for substances of low solubility in water [1]: proved useful

1,2-Dioleoyl-sn-glycero-3-phospho-N,N-dimethyl-N-dihydroxypropyl-ethylammonium [Example 14]
suitability as solubilizer for substances of low solubility in water [1]: proved useful

CCCCCCCC/C=C\CCCCCCCCCCCC(=O)OC[C@@H](O)COP(=O)([O-])OCCC[N+](C)(C)C [Example 139, 1-Erucoyl-sn-glycero-3-phospho-N,N,N-trimethyl-propylammonium]
suitability as solubilizer for substances of low solubility in water [1]: proved useful

CCCCCCCC/C=C\CCCCCCCCCCCCOP(=O)([O-])OCC[N+](C)(C)C [Erucylphosphocholine]
gel formation in water [2]: forms gel-like structures in water
